# Experimental data: PMC9871955, “High-throughput screening of SARS-CoV-2 main and papain-like protease inhibitors” (Protein & Cell, 2022)
# Read-outs that look alike come from different tables or passages of the source.
# Columns and labels:
# [1] = biological target: SARS-CoV-2 M^pro (Severe acute respiratory syndrome coronavirus 2, UniProt P0DTD1); experiment: biochemical
# [2] = tested on: Vero cells
# [3] = Table S3, representative dual inhibitors, read-out: IC50 for M^pro
# [4] = read-out: IC50 / inhibitory activity against M^pro
# [5] = Table S2, PL^pro inhibitors, same inhibitor concentration
# [6] = Table S1, M^pro inhibitors, 40 nmol/L enzyme, 20 µmol/L substrate, read-out: IC50
# [7] = Table S1, M^pro inhibitors, same inhibitor concentration (10 µg/mL)
Structure (SMILES),IC50 ([1]; IC50 (μM) at S/KM 1) [µM],IC50 ([1]; IC50 (μM) at S/KM 1/2) [µM],IC50 ([1]; IC50 (μM) at S/KM 2) [µM],"IC50 [1, 3] [µM]","Cytotoxicity activity (%) [2, 5] [%]","IC50 [1, 6] [µM]","Cytotoxicity activity (%) [2, 7] [%]",further results
O=c1sc2ccccc2n1Cc1n[nH]c(=S)n1-c1ccccc1 [JK0946-F007],9.67 ± 3.64,3.56 ± 0.62,8.97 ± 2.32,8.7 ± 0.9,-4.63,–,–,"IC50 [1, 4]: 4.2 ± 0.6 µM"
O=C(COc1ccc(Cl)cc1)NCc1n[nH]c(=S)n1-c1ccc(Br)cc1 [JK0109-H005],–,1.33 ± 0.28,3.36 ± 0.47,4.2 ± 0.7,-4.08,–,–,IC50 (μM) at S/KM 1 [1]: 4.17 ± 1.29 µM
O=C1NC(=O)C(=Cc2ccc(-c3cccc(Cl)c3Cl)o2)C(=O)N1 [WNN3989-H007],–,0.11 ± 0.01,–,–,–,0.552 ± 0.12,-4.89,–
COc1ccc(-n2c(S)nnc2CNc2ccc(C)cc2)cc1 [RUS0105-C005],–,–,–,–,–,0.478 ± 0.009,5.87,–
O=C1NC(=O)N(Cc2ccccc2)C(=O)C1=Cc1ccco1 [WNN3797-H008],–,0.67 ± 0.28,0.55 ± 0.02,–,–,0.172,-7.75,–
COc1ccc(-n2c(S)nnc2CNC(=O)c2cc(OC)c(OC)c(OC)c2)cc1 [JK0109-C011],16.1 ± 3.07,2.3 ± 0.96,–,42.8 ± 1.7,-9.42,–,–,–
Cc1ccc(NCc2n[nH]c(=S)n2-c2ccccc2)cc1 [WNN2867-E005],–,–,–,–,–,0.466 ± 0.101,-6.94,–
O=C1NC(=O)C(=Cc2ccc(-c3cccc(C(F)(F)F)c3)o2)C(=O)N1 [WNN3953-B007],0.77 ± 0.14,–,0.53 ± 0.1,–,–,0.16 ± 0.009,13.01,–
COc1ccc(CN2C(=O)NC(=O)/C(=C\c3ccco3)C2=O)cc1 [CDE0972-G011],–,–,–,–,–,–,-7.84,IC50 ([1]; read-out: IC50 (μM) at S/KM 1): 2.86 ± 0.53 µM; IC50 ([1]; read-out: IC50 (μM) at S/KM 1/2): 2.17 ± 0.2 µM; IC50 ([1]; read-out: IC50 (μM) at S/KM 2): 3.5 ± 0.42 µM
O=C(Oc1cncc(Cl)c1)c1sccc1Cl [WNN2048-F004],0.35 ± 0.11,–,0.33 ± 0.07,–,–,0.131 ± 0.011,6.16,"dependence of apparent IC50 on substrate concentration [1]: consistent IC50 that is not affected by substrate concentration; IC50 ([1]; running text and Figure 4A, read-out: IC50 against M^pro): 0.103 ± 0.0052 µM; cytotoxicity effect ([2]; in words): without cytotoxicity effect"
O=C(NCc1n[nH]c(=S)n1-c1ccc(Br)cc1)c1ccc(Cl)cc1Cl [JK0108-D008],4.37 ± 0.84,–,5.83 ± 1.68,–,-8.62,–,–,"IC50 [1, 4]: 0.5 µM"
COc1ccc(-n2c(CNC(=O)COc3ccc(Cl)cc3Cl)n[nH]c2=S)cc1 [JK0109-B011],1.53 ± 0.58,1.33 ± 0.26,–,21.8 ± 0.3,-7.31,–,–,–
O=C1NC(=O)C(=Cc2ccc(-c3cccc(Cl)c3)o2)C(=O)N1 [RUS0245-E010],0.25 ± 0.04,0.34 ± 0.04,0.34 ± 0.09,–,–,0.196 ± 0.009,-8.14,–
CCOc1cc(C(=O)NCc2n[nH]c(=S)n2-c2ccc(Br)cc2)cc(OCC)c1OCC [JK0109-B004],1.62 ± 0.24,1.01 ± 0.25,2.17 ± 0.27,9.7 ± 0.1,-7.5,–,–,–
CC(C(=O)NCc1ccco1)n1c(Cc2c(Cl)cccc2Cl)nc2ccccc21 (stereo not shown) [CD3531-C011],–,–,–,–,-14.28,–,–,–
CCC(C(=O)NCc1ccco1)n1c(Cc2c(Cl)cccc2Cl)nc2ccccc21 (stereo not shown) [CD3226-D010],–,–,–,–,-22.39,–,–,–
